The source made the active and inactive calls.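 How the source made its calls: active means compounds whose IC50 against parasite growth in infected mouse cells is below 50000 nM; inactive means the rest.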

The assay has as its system T. cruzi Tulahuen in NIH-3T3, beta-gal fluorescence, 4 d. Nature of the assay: anti-Chagas amastigote proliferation inhibitors – cell-based (AID 1159559).

For `Cc1ccc2ccc(C(Nc3ccccn3)c3cccnc3)c(O)c2n1` (configuration not stated), the IC50 (commonly the point on the concentration scale where inhibition reaches its midpoint) is 500 nM.

Consider `CCCCCNC(=O)c1c[nH]c2ccc(S(=O)(=O)N(C)c3ccc(OCC)cc3)cc2c1=O`, for which the IC50 was 32000 nM. As for `CCN(CC)c1nc(N(C)C)nc2c1CN(Cc1ccccc1)CC2`, the figure is 6300 nM. As for `OC[C@@H](Nc1nccc(-c2c(-c3ccc(F)cc3)ncn2C2CCNCC2)n1)c1ccccc1`, the figure is 32000 nM; as for `Cc1cccc(NS(=O)(=O)c2cnc3sc(C)cn3c2=O)c1`, 1300 nM; as for `Cc1cc(-c2cccc3ccccc23)nc2nc(N)nc(N)c12`, 40000 nM. Then `Cc1ccc(CNC2CCN(C[C@@H]3Cn4c(=O)ccc5ccc(=O)n3c54)CC2)cc1F`, with 1300 nM; and `CCC(=O)Nc1ccc(C(=O)Nc2ccccc2-c2ccccc2)cc1`, with 500 nM; and `N#Cc1cccc(CN2CCC(c3nc(-c4ccc(C(F)(F)F)nc4)no3)CC2)c1`, with 2000 nM. With `O=C(Nc1ccccc1C(=O)Nc1ccccn1)c1ccco1`, the IC50 is > 50000 nM (inactive). As for `c1ccc(CCNCc2cncc3nc(-c4cnccn4)n(C4CCCCC4)c23)cc1`, the figure is 320 nM.

As to `O=C(NCC1CCCCC1)c1cnns1`, the IC50 is 2500 nM. Then `COc1ccc([N+](=O)[O-])cc1NC(=O)Nc1cccc(Cl)c1`, with 790 nM; and `Cc1ccc(NC(=O)c2ccc(Cl)c(NC(=O)c3ccc([N+](=O)[O-])cc3)c2)cc1`, with 630 nM; and `CC(C(=O)Nc1ccccc1F)N(C)CC(=O)Nc1cccc2ccccc12` (configuration not stated), with 400 nM. As for `O=C(Nc1nc(-c2ccccn2)cs1)c1ccc(S(=O)(=O)N2CCCCC2)cc1`, the figure is 630 nM; as for `CC1CCCN(S(=O)(=O)c2ccc(C(=O)Nc3nc(-c4ccccn4)cs3)cc2)C1` (configuration not stated), 400 nM.

In the case of `CCNc1cc(-c2ccccn2)nc(Nc2ccccc2)n1`, the IC50 is 790 nM. As for `CS(=O)(=O)NC1CCC(Oc2cc3cnccc3cc2-c2ccsc2)CC1` (configuration not stated), the figure is 130 nM; as for `COc1ccc(C(=O)N2CCC(Nc3cccnc3)C2)c(OC)n1` (configuration not stated), 320 nM; as for `O=C(Nc1cccc(S(=O)(=O)Nc2ccc(Br)cc2)c1)c1ccc([N+](=O)[O-])s1`, 100 nM.

`CCCc1cc(N)nc(-c2cc(CCC)cc(N)n2)c1`: the IC50 is 2000 nM. Turning to `Cc1nn(-c2ccccc2)nc1CNC(=O)CN(Cc1ccccn1)Cc1ccccn1`, the IC50 is 4000 nM. For the compound `COc1cccc(C(=O)[C@H]2C[C@@H]2CN(Cc2ccccn2)Cc2ccccn2)c1`, the IC50 was 1300 nM. Regarding `CC1CCCCN1C(=O)NCCc1coc(-c2ccc(F)cc2)n1` (configuration not stated), the IC50 is 400 nM. As for `CCOc1ccc(NC(=O)C=Cc2ccc(CC)o2)cc1`, the figure is 2000 nM; as for `COc1ncc(-c2ccc3ncnc(N4CCOCC4)c3c2)cc1NS(C)(=O)=O`, 500 nM; as for `Cc1ccc(NC(=O)c2ccnc(N3CCCC3)c2)cc1-c1cc(C(N)=O)ccc1C`, 6300 nM.

For the compound `CS(=O)(=O)NC1CCC(Nc2ncc(Br)c(Nc3ccccc3C(N)=O)n2)CC1` (configuration not stated), the IC50 was 7900 nM.

In the case of `Clc1ccc(C(CC2CCCCO2)Cn2cncn2)c(Cl)c1` (configuration not stated), the IC50 is 400 nM.

Turning to `O=C(Nc1nc2ccccc2[nH]1)c1c(O)c2cccc3c2n(c1=O)CC3`, the IC50 is 20000 nM. For the compound `Cc1cc(C)nc(N2CCC(N(Cc3cccnc3)C(=O)c3cccc(C#N)c3)CC2)n1`, the IC50 was 320 nM. Then `Cc1cccc(N2CCCN(Cc3c[nH]c4ccccc34)CC2)n1`, with 320 nM; and `Fc1ccc(Nc2nc(-c3ccccn3)cs2)cc1`, with 2500 nM. As for `Cc1nnnn1-c1cccc(C(=O)N2CCC[C@@]3(C)c4ncncc4CCC23)c1` (some centres not stated), the figure is 630 nM; as for `Cc1ccccc1NS(=O)(=O)c1ccc2[nH]cc(C(=O)NC3CCCC3)c(=O)c2c1`, 25000 nM. As for `O=C(c1cnn(-c2ccccc2)n1)N1CCCC(n2ccnc2)C1` (configuration not stated), the figure is 50 nM; as for `O=C(C1CCCCC1)N1CCN(c2nnc(-c3ccccc3)c3ccccc23)CC1`, 1000 nM. As to `COc1cc(Nc2nccc(Nc3onc(C)c3C)n2)cc(S(=O)(=O)C2CCOCC2)c1`, the IC50 is 6300 nM. As for `CC(C)CC(=O)Nc1cc(C2CC2)nn1-c1nc2c(c(=O)[nH]1)CCCC2`, the figure is 790 nM; as for `COCc1cc(Nc2ccccc2)nc(-c2ccccn2)n1`, 5000 nM; as for `O=C(CN1CCC2(O)CCCCC2C1c1ccc2c(c1)OCO2)Nc1ccc(Cl)cc1Cl` (configuration not stated), 13000 nM. Then `CN(C)Cc1ccc(-c2ccc(S(=O)(=O)NCC3CCCO3)c(F)c2)cc1` (configuration not stated), with 1300 nM.

Take `Cc1cn[nH]c1C1CCCN(Cc2nc3ccccc3n2C)C1` (configuration not stated): the IC50 was 3200 nM. Then `CCN(Cc1cccs1)C(=O)CSc1nnc(-c2ccc3c(c2)OCO3)o1`, with 4000 nM; and `CCCN(Cc1ccc(OC)c(OC)c1)Cc1cc(=O)c2c(C)cc(C)cc2[nH]1`, with 2000 nM.

Turning to `CN(C)S(=O)(=O)c1ccc(-c2cnc(N)c(-c3nc4ccc(F)cc4[nH]3)c2)cc1`, the IC50 is 1300 nM. Then `N#Cc1cnc(Nc2cccc(CCN3CCOCC3)c2)nc1Nc1ccccc1C(N)=O`, with 1300 nM. Then `N#Cc1cc(-c2ccnc(Nc3cccc(CN4CCOCC4)c3)n2)ccc1NCCN`, with 7900 nM; and `O=C(NCCc1cccnc1)c1csc(-c2ccccc2)n1`, with 250 nM. As for `NC(=O)c1ccccc1Nc1nc(NC2CCCCC2)nc2[nH]ccc12`, the figure is 1000 nM. On to `Cc1ccc(NC(C)C(=O)Nc2ccc(C#N)cc2)cc1S(=O)(=O)N1CCCCC1` (configuration not stated), for which the IC50 was 10000 nM. Take `CC(=O)Nc1ccc(-c2ccnc(Nc3cccc(C#N)c3)n2)cc1`: the IC50 was 6300 nM.

Regarding `CC(C)(C)C(Cn1ccnc1)NC(=O)c1ccc2nc(C3CC3)oc2c1` (configuration not stated), the half-inhibitory concentration (IC50) is 100 nM.

Take `Oc1cccnc1-c1n[nH]c(Cc2ccccc2)n1`: the IC50 is 6300 nM. Then `O=C(Nc1cccc(Cl)c1)Nc1ccc([N+](=O)[O-])cc1Cl`, with 1300 nM; and `CCS(=O)(=O)Nc1ccc(C2=NN(C(=O)c3cccs3)C(c3ccccc3OC)C2)cc1` (configuration not stated), with 7900 nM; and `COc1ccc(-c2cc(C)no2)cc1S(=O)(=O)Nc1ccc(F)c(Cl)c1`, with 1600 nM. With `O=C(CN(Cc1ccccn1)Cc1ccccn1)NCc1csc(-c2cccs2)n1`, the IC50 was 4000 nM. Then `COc1ncc(-c2ccc3nccc(-c4ccncc4)c3c2)cc1NS(C)(=O)=O`, with 1600 nM. Turning to `Cc1ccc(NC(=O)c2ccc([N+](=O)[O-])s2)cc1S(=O)(=O)N1CCOCC1`, the IC50 was 200 nM.

Take `COc1ccccc1C(=O)Nc1nnc(-c2ccc3c(c2)OCO3)s1`: the IC50 is 2500 nM. As for `CN(C)CCOc1ccc(N2CCN(S(=O)(=O)c3ccc(Cl)cc3)CC2)cc1`, the figure is 630 nM. As for `Cc1nn(C2CCS(=O)(=O)C2)c(C)c1CN(C)C(=O)C=Cc1sc2ccccc2c1Cl` (configuration not stated), the figure is 630 nM; as for `Cc1ccc(Nc2nc(C3CCCN3Cc3ccn[nH]3)cs2)nc1` (configuration not stated), 790 nM; as for `COc1ccccc1C=CCN1C[C@H]2CCC[C@@H](C1)C2(O)c1cccnc1` (some centres not stated), 50 nM. Then `O=C(CN(Cc1ccccn1)Cc1ccccn1)NCc1ccc(-c2csnn2)cc1`, with 4000 nM; and `CN(Cc1nc2ccccc2s1)C(=O)C=Cc1cc2ccccc2o1`, with 630 nM; and `O=C(N[C@H](CO)c1ccccc1)c1ccc(-c2c[nH]c3nccc(C(F)(F)F)c23)s1`, with 7900 nM.

Consider `COc1ccc(Nc2nc(NC3CCC(O)CC3)ncc2Br)c(C(N)=O)c1` (configuration not stated), for which the IC50 was 4000 nM. Then `CNC(=O)C1Cc2ccccc2N1C(=O)Cc1ccc(F)cc1` (configuration not stated), with > 50000 nM (inactive); and `O=C(Cc1ccccc1)Nc1ccccc1C(=O)Nc1nccs1`, with 40000 nM; and `CN1CCCN(C(=O)c2ccc(N3CCCC3)cc2Cl)CC1`, with 790 nM.

`Cc1nc(C(=O)Nc2ccc3c(c2)OCO3)nn1-c1ccc(Cl)cc1`: the IC50 is 6300 nM. Then `COc1ccc(C(C)N(C)c2ncc3c(N)nc(N)nc3n2)cc1F` (configuration not stated), with 79 nM; and `COc1ccc(Nc2nc(-c3ccccn3)cs2)c(OC)c1`, with 4000 nM. Then `CN(Cc1nc2c(C(=O)N3CCN(Cc4ccccc4)CC3)cccc2[nH]1)C1CCCc2cccnc21` (configuration not stated), with 790 nM; and `CC(C)(C)Nc1nc(-c2ccccn2)nc2ccccc12`, with 1300 nM; and `O=C(Nc1ccccc1)Nc1nc(-c2ccccn2)cs1`, with 630 nM.

As for `Cc1ccc(C)c(OC2CCN(C(=O)C(C)n3ccnc3)CC2)c1` (configuration not stated), the IC50 is 160 nM. As for `CCCc1nc2nc(N)nc(N)c2cc1CC`, the figure is 320 nM; as for `Cc1ccc(S(C)(=O)=O)cc1Nc1nccc(-c2sc(N)nc2-c2ccccc2)n1`, 130 nM. Then `CCOc1ccc2nc(NC(=O)c3ccc([N+](=O)[O-])s3)sc2c1`, with 1600 nM. Then `O=C(Cc1ccccc1)Nc1[nH]nc2sc(C(=O)NC3CCCC3)cc12`, with 7900 nM; and `CC(=O)NCCNc1cc(-c2ccnc(Nc3cccc(Cl)c3)n2)ccn1`, with 400 nM. In the case of `CC1CN(Cc2ccc(C#N)cc2)CCN1c1ccc(NC(=O)c2ccccc2F)cc1` (configuration not stated), the IC50 was 25000 nM.

Regarding `COc1ccccc1CNc1cc(C2CC2)nc(-c2nccn2C)n1`, the IC50 was 790 nM. In the case of `C[C@@H](Oc1cc(-n2cnc3ccc(CC(O)CO)cc32)sc1C(N)=O)c1ccccc1Cl` (some centres not stated), the IC50 was 3200 nM.

In the case of `COCCn1c(-c2ccc3c(c2)OCO3)cnc1NCc1ccccc1OC`, the IC50 is 7900 nM. As for `O=c1ccc2ccc(F)c3c2n1C[C@H]3CN1CCN(CC(O)c2cc3c(cn2)OCS3)CC1` (some centres not stated), the figure is 630 nM; as for `Oc1c(-c2n[nH]c(CCc3ccccc3)n2)ncc2cccnc12`, 200 nM; as for `CCCNC(=O)Nc1cccc(-c2nc3ncccc3o2)c1`, 2500 nM. For `COc1cc(C2SCC(=O)Nc3c2c(C)nn3-c2nc3ccccc3s2)cc(OC)c1O` (configuration not stated), the IC50 was > 50000 nM (inactive). Then `CCN(Cc1nc2ccc(C(=O)N3CCN(c4ncccn4)CC3)cc2[nH]1)C1CCCc2cccnc21` (configuration not stated), with 1300 nM; and `CNC(=O)C1Cc2ccccc2N1C(=O)COc1cccc(OC)c1` (configuration not stated), with > 50000 nM (inactive); and `Cc1nc(N2CC(C)OC(C)C2)sc1C(=O)Nc1ccc2c(c1)OCO2` (configuration not stated), with 2000 nM. Then `COc1ccc(-c2cnc(NC(=O)c3ccc(F)cc3)n2C)cc1`, with 2500 nM.

The record behind these values is PubChem BioAssay AID1159559 (GlaxoSmithKline (GSK), 2015).
